For this assay, the system named is endogenous cellular STAT1 (phosphorylated at Tyr701) in NCI-H1373 cells. In words: Phospho-STAT1 (Tyr701) LANCE Ultra TR-FRET Detection Assay. The assay is classed as cell-based. Particulars: Homo sapiens, NCI-H1373, 48 h, phospho-STAT1 (Tyr701) induction, read-out: NH1373 pSTAT1 EC50. For orientation: In TR-FRET formats the signal depends on donor and acceptor labels being close together.

The term EC50 denotes the concentration needed to bring the measured effect to its halfway point. With `C[C@@H](CCCn1cnc2cc(-c3cc4c(cn3)C(F)(F)CC4)c(F)cc2c1=O)Nc1cn[nH]c(=O)c1C(F)(F)F` [Example 204], the 50% effective concentration (EC50) stood at 45.1 nM.

On to `C[C@@H](CCCn1cnc2cc(-c3ncc(F)c(N)n3)c(F)cc2c1=O)Nc1cn[nH]c(=O)c1C(F)(F)F` [Example 67, 7-(4-amino-5-fluoro-pyrimidin-2-yl)-6-fluoro-3-[(4S)-4-[[6-oxo-5-(trifluoromethyl)-1H-pyridazin-4-yl]amino]pentyl]quinazolin-4-one], for which the EC50 was 218 nM.

As to `COc1ncc(-c2cc3ccn(C[C@@H]4CCC[C@H](Nc5cn[nH]c(=O)c5C(F)(F)F)C4)c(=O)c3cc2F)nc1N` [Example 263, 6-(6-amino-5-methoxypyrazin-2-yl)-7-fluoro-2-(((1R,3S)-3-((6-oxo-5-(trifluoromethyl)-1,6-dihydropyridazin-4-yl)amino)cyclohexyl)methyl)isoquinolin-1(2H)-one], the EC50 amounted to 122 nM.

Take `O=c1[nH]ncc(N[C@H](CCCn2cnc3cc(C4=CCCCO4)c(F)cc3c2=O)COC(F)F)c1C(F)(F)F` [Example 398, (R)-3-(5-(difluoromethoxy)-4-((6-oxo-5-(trifluoromethyl)-1,6-dihydropyridazin-4-yl)amino)pentyl)-7-(3,4-dihydro-2H-pyran-6-yl)-6-fluoroquinazolin-4(3H)-one]: the EC50 came out at 424 nM.

With `C#C[C@@H](CCCn1ccc2cc(-c3ncc(C(F)(F)F)cn3)c(F)cc2c1=O)Nc1cn[nH]c(=O)c1C(F)(F)F` [Example 170, 7-fluoro-2-[(4R)-4-[[6-oxo-5-(trifluoromethyl)-1H-pyridazin-4-yl]amino]hex-5-ynyl]-6-[5-(trifluoromethyl)pyrimidin-2-yl]isoquinolin-1-one], the EC50 was found to be 195 nM.

Regarding `C[C@@H](CCCn1ccc2cc(-c3ccc(C(F)F)c(N)n3)c(F)cc2c1=O)Nc1cn[nH]c(=O)c1C(F)(F)F` [Example 224, (S)-6-(6-amino-5-(difluoromethyl)pyridin-2-yl)-7-fluoro-2-(4-((6-oxo-5-(trifluoromethyl)-1,6-dihydropyridazin-4-yl)amino)pentyl)isoquinolin-1(2H)-one], the EC50 was found to be 6.14 nM.

As for `CC[C@@H](CCCn1cnc2cc(-c3ncc(C(F)F)c(N)n3)c(F)cc2c1=O)Nc1cn[nH]c(=O)c1C(F)(F)F` [Example 320, (S)-7-(4-amino-5-(difluoromethyl)pyrimidin-2-yl)-6-fluoro-3-(4-((6-oxo-5-(trifluoromethyl)-1,6-dihydropyridazin-4-yl)amino)hexyl)quinazolin-4(3H)-one], the EC50 was determined as 31.2 nM.

As to `O=c1[nH]ncc(N[C@H]2CCCC[C@H]2CCn2ccc3cc(-c4ncc(C(F)(F)F)cn4)c(F)cc3c2=O)c1C(F)(F)F` (racemic) [Example 436, (rac)-7-fluoro-2-(2-((1S,2S)-2-((6-oxo-5-(trifluoromethyl)-1,6-dihydropyridazin-4-yl)amino)cyclohexyl)ethyl)-6-(5-(trifluoromethyl)pyrimidin-2-yl)isoquinolin-1(2H)-one], the EC50 was determined as 443 nM.

As for `CCOC[C@@H](CCCn1ccc2cc(-c3ncc(C(F)(F)F)cn3)c(F)cc2c1=O)Nc1cn[nH]c(=O)c1C(F)(F)F` [Example 180, (R)-2-(5-ethoxy-4-((6-oxo-5-(trifluoromethyl)-1,6-dihydropyridazin-4-yl)amino)pentyl)-7-fluoro-6-(5-(trifluoromethyl)pyrimidin-2-yl)isoquinolin-1(2H)-one], the EC50 worked out at 1.89 nM.

Turning to `CC[C@@H](CCCn1ccc2cc(-c3ncc(OC)c(N)n3)c(F)c(F)c2c1=O)Nc1cn[nH]c(=O)c1C(F)(F)F` [Example 350, (S)-6-(4-amino-5-methoxypyrimidin-2-yl)-7,8-difluoro-2-(4-((6-oxo-5-(trifluoromethyl)-1,6-dihydropyridazin-4-yl)amino)hexyl)isoquinolin-1(2H)-one], the half-maximal effective concentration (EC50) came to 15.1 nM.

Consider `O=c1[nH]ncc(N[C@H](CCCn2cnc3cc(-c4ncc(C(F)(F)F)cn4)c(F)cc3c2=O)COC(F)F)c1C(F)(F)F` [Example 382, (R)-3-(5-(difluoromethoxy)-4-((6-oxo-5-(trifluoromethyl)-1,6-dihydropyridazin-4-yl)amino)pentyl)-6-fluoro-7-(5-(trifluoromethyl)pyrimidin-2-yl)quinazolin-4(3H)-one], for which the EC50 worked out at 2.17 nM.

In the case of `O=c1[nH]ncc(N[C@H](CCCn2ccc3cc(-c4cnc(OC(F)F)cn4)c(F)cc3c2=O)COC(F)F)c1C(F)(F)F` [Example 371, (R)-2-(5-(difluoromethoxy)-4-((6-oxo-5-(trifluoromethyl)-1,6-dihydropyridazin-4-yl)amino)pentyl)-6-(5-(difluoromethoxy)pyrazin-2-yl)-7-fluoroisoquinolin-1(2H)-one], the EC50 amounted to 6.78 nM.

Turning to `C[C@@H](CCCn1ccc2cc(-c3ncc(C4(F)COC4)c(N)n3)c(F)cc2c1=O)Nc1cn[nH]c(=O)c1C(F)(F)F` [Example 344, (S)-6-(4-amino-5-(3-fluorooxetan-3-yl)pyrimidin-2-yl)-7-fluoro-2-(4-((6-oxo-5-(trifluoromethyl)-1,6-dihydropyridazin-4-yl)amino)pentyl)isoquinolin-1(2H)-one], the EC50 amounted to 28.2 nM.

Regarding `O=c1[nH]ncc(N[C@H]2CCC[C@@H](Cn3ccc4cc(-c5cnc(C(F)(F)F)cn5)c(F)cc4c3=O)C2)c1C(F)(F)F` [Example 256, 7-fluoro-2-(((1R,3S)-3-((6-oxo-5-(trifluoromethyl)-1,6-dihydropyridazin-4-yl)amino)cyclohexyl)methyl)-6-(5-(trifluoromethyl)pyrazin-2-yl)isoquinolin-1(2H)-one], the EC50 stood at 30.2 nM.

For the compound `Nc1nc(-c2cc3ccn(C[C@@H]4CCC[C@H](Oc5cn[nH]c(=O)c5C(F)(F)F)C4)c(=O)c3cc2F)ncc1C(F)(F)F` [Example 455, 6-(4-amino-5-(trifluoromethyl)pyrimidin-2-yl)-7-fluoro-2-(((1R,3S)-3-((6-oxo-5-(trifluoromethyl)-1,6-dihydropyridazin-4-yl)oxy)cyclohexyl)methyl)isoquinolin-1(2H)-one], the EC50 was found to be 38.2 nM.

Turning to `Nc1nc(-c2cc3ccn(C[C@@H]4CCC[C@H](Nc5cn[nH]c(=O)c5C(F)(F)F)C4)c(=O)c3c(F)c2F)ncc1C(F)F` [Example 239], the EC50 is 5.37 nM.

Consider `N#Cc1cn(C[C@@H]2CCC[C@H](Nc3cn[nH]c(=O)c3C(F)(F)F)C2)c(=O)c2cc(F)c(-c3ncc(C(F)(F)F)cn3)cc12` [Example 483, 7-fluoro-1-oxo-2-(((1R,3S)-3-((6-oxo-5-(trifluoromethyl)-1,6-dihydropyridazin-4-yl)amino)cyclohexyl)methyl)-6-(5-(trifluoromethyl)pyrimidin-2-yl)-1,2-dihydroisoquinoline-4-carbonitrile], for which the EC50 came out at 4.71 nM.

As for `Nc1nc(-c2cc3ccn(CCC[C@H](COC(F)F)Nc4cn[nH]c(=O)c4C(F)(F)F)c(=O)c3cc2F)ccc1F` [Example 409, (R)-6-(6-amino-5-fluoropyridin-2-yl)-2-(5-(difluoromethoxy)-4-((6-oxo-5-(trifluoromethyl)-1,6-dihydropyridazin-4-yl)amino)pentyl)-7-fluoroisoquinolin-1(2H)-one], the EC50 came out at 4.49 nM.

Take `O=c1[nH]ncc(O[C@H]2CCC[C@@H](Cn3ccc4cc(-c5ncc(C(F)F)cn5)c(F)cc4c3=O)C2)c1C(F)(F)F` [Example 456, 6-(5-(difluoromethyl)pyrimidin-2-yl)-7-fluoro-2-(((1R,3S)-3-((6-oxo-5-(trifluoromethyl)-1,6-dihydropyridazin-4-yl)oxy)cyclohexyl)methyl)isoquinolin-1(2H)-one]: the EC50 was determined as 48 nM.

In the case of `[2H]C([2H])([2H])OC[C@@H](CCCn1cnc2cc(-c3ncc(C(F)F)cn3)c(F)cc2c1=O)Nc1cn[nH]c(=O)c1C(F)(F)F` [Example 431], the half-maximal effective concentration (EC50) was 6.42 nM.

`O=c1[nH]ncc(N[C@H](CCCn2ccc3cc(-c4nc5n(n4)CCNC5)c(F)cc3c2=O)COC(F)F)c1C(F)(F)F` [Example 439, (R)-2-(5-(difluoromethoxy)-4-((6-oxo-5-(trifluoromethyl)-1,6-dihydropyridazin-4-yl)amino)pentyl)-7-fluoro-6-(5,6,7,8-tetrahydro-[1,2,4]triazolo[1,5-a]pyrazin-2-yl)isoquinolin-1(2H)-one]: the EC50 amounted to 534 nM.

Turning to `Nc1nc(-c2cc3ccn(CCC[C@H](COC(F)F)Nc4cn[nH]c(=O)c4C(F)(F)F)c(=O)c3c(F)c2F)cnc1C(F)(F)F` [Example 418, (R)-6-(6-amino-5-(trifluoromethyl)pyrazin-2-yl)-2-(5-(difluoromethoxy)-4-((6-oxo-5-(trifluoromethyl)-1,6-dihydropyridazin-4-yl)amino)pentyl)-7,8-difluoroisoquinolin-1(2H)-one], the 50% effective concentration (EC50) was 4.58 nM.

Consider `Nc1nc(-c2cc3ccn(C[C@@H]4CCC[C@H](Nc5cn[nH]c(=O)c5C(F)(F)F)C4)c(=O)c3cc2F)ccc1C(F)F` [Example 269, 6-(6-amino-5-(difluoromethyl)pyridin-2-yl)-7-fluoro-2-(((1R,3S)-3-((6-oxo-5-(trifluoromethyl)-1,6-dihydropyridazin-4-yl)amino)cyclohexyl)methyl)isoquinolin-1(2H)-one], for which the EC50 was determined as 54.3 nM.

With `Nc1nc(-c2cc3ncn(CCC[C@H](COC(F)F)Nc4cn[nH]c(=O)c4C(F)(F)F)c(=O)c3cc2F)ccc1C(F)(F)F` [Example 390, (R)-7-(6-amino-5-(trifluoromethyl)pyridin-2-yl)-3-(5-(difluoromethoxy)-4-((6-oxo-5-(trifluoromethyl)-1,6-dihydropyridazin-4-yl)amino)pentyl)-6-fluoroquinazolin-4(3H)-one], the EC50 is 11.7 nM.

For `C[C@@H](CCCn1ccc2cc(-c3nc4cc(F)ccn4n3)c(F)cc2c1=O)Nc1cn[nH]c(=O)c1C(F)(F)F` [Example 335, (S)-7-fluoro-6-(7-fluoro-[1,2,4]triazolo[1,5-a]pyridin-2-yl)-2-(4-((6-oxo-5-(trifluoromethyl)-1,6-dihydropyridazin-4-yl)amino)pentyl)isoquinolin-1(2H)-one], the EC50 is 5.57 nM.

Values taken from patent US12459922B2 (Gilead Sciences, Inc., priority 2022, dated 2025).
